The text below walks through data of US10562912B2 (C&C Research Laboratories, priority 2013, dated 2020).

Where only a bound is given, the exact number is not on record here.

As usually defined, the IC50 is the concentration at which inhibition is half-maximal. A lower IC50 goes with higher potency.

Holding throughout (assay type): cell-based
One experiment has as its target T1, STAT3 (Homo sapiens, UniProt P40763).
T1 construct: plasmid pSTAT3-TA-luc), which contains a stably operating STAT3 promoter; endogenous in cells
The experiment in a line: STAT3 reporter gene assay (luciferase), LNCaP stable cell line (pSTAT3-TA-luc), IL-6 stimulation. In short, it runs like this:
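LNCaP cells stably carrying pSTAT3-TA-luc, in RPMI1640 with 3% DCC-FBS, were treated with compound and then stimulated with 10 ng/mL IL-6 for 24–48 h at 37 °C. Luciferase activity was measured in lysates. A parallel plate measured viability by CellTiter-Glo, with stimulated 0.1% DMSO wells as the positive control.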
In general terms: In a reporter assay the amount or activity of a reporter protein is the signal.

For a further experiment, the system named is LNCaP. The experiment in a line: Cell growth inhibition assay, prostate cancer cell line LNCaP (medium with 10 ng/mL IL-6). Conditions: Homo sapiens, medium supplemented with 10 ng/mL of IL-6, 10,000 cells/well.
The test system of a further experiment is MDA-MB-231. The experiment in a line: Cell growth inhibition assay, breast cancer cell line MDA-MB-231. Conditions: Homo sapiens; MDA-MB-231 breast cancer cell line, 5,000 cells/well. On the procedure:
The inhibitory effects of the compounds of the present invention against the growth of cancer cells were evaluated as shown below. The cancer cell lines including stomach cancer cell line (AGS), breast cancer cell lines (MDA-MB-231, MDA-MB-468, and BT-549), prostate cancer cell lines (LNCaP and DU-145), colon cancer cell line (HCT116), ovarian cancer cell line (SW626), liver cancer cell line (Hep3B), kidney cancer cell line (ACHN), lung cancer cell line (NCI-H23) and blood cancer cell lines (HEL92.1.7 and U266) were cultured under the protocol provided by each supplier. A medium supplemented with 10 ng/mL of IL-6 was used for LNCaP, a prostate cancer cell line, when treated with a drug. Each type of cells to be used in experiments were sub-cultured in a 96-well plate by counting the exact number of cells using Tali™ Image-based Cytometer (Life Technologies). In a 96-well plate, AGS, HCT116, and DU-145 were employed with 3,000 cells/well; NCI-H23, SW626, Hep3B, ACHN, BT-549, MDA-MB-231, HEL92.1.7, and U266 were employed with 5,000 cells/well; and LNCaP and MDA-MB-468 were employed with 10,000 cells/well. The cells were treated with the compounds listed in Examples which were diluted in various concentrations. Upon completion of the compounds treatment, AGS, HCT116, SW626, DU145, NCI-H23, Hep3B, ACHN, BT-549, LNCaP, HEL92.1.7, and U266 cells were cultured at 37° C. under 5% CO2 for from 72 to 96 hours, and MDA-MB-231 and MDA-MB-468 cells were cultured at 37° C. in air for from 72 to 96 hours. Subsequently, the cells were observed under microscope and drug precipitation and particular findings were investigated and recorded. And then, the 96-well plate was placed at room temperature for 30 minutes, added with 20 μL/well of CellTiter-Glo solution (Cat No. G7573, Promega) and shaken for 10 minutes, followed by being subjected to the measurement using PHERAstar™ microplate reader (BMG LABTECH) according to the supplier's general luminometer protocol. Wells where only culture liquid added without cell plating were used as a negative control, whereas wells where culture liquid containing 0.1% DMSO instead of the compounds listed in Examples were used as a positive control.

A further experiment concerns DU-145. Nature of the experiment: Cell growth inhibition assay, prostate cancer cell line DU-145. The note with it: Homo sapiens, DU-145 prostate cancer cell line. In short, it runs like this:
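DU-145 and HCT116 cells were plated at 3,000 cells/well and SW626 at 5,000 cells/well, then treated with serially diluted compounds. After 72 to 96 hours at 37° C. under 5% CO2, viability was read by CellTiter-Glo luminescence against cell-free medium wells and 0.1% DMSO wells.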

T1 sequence (P40763 whole entry): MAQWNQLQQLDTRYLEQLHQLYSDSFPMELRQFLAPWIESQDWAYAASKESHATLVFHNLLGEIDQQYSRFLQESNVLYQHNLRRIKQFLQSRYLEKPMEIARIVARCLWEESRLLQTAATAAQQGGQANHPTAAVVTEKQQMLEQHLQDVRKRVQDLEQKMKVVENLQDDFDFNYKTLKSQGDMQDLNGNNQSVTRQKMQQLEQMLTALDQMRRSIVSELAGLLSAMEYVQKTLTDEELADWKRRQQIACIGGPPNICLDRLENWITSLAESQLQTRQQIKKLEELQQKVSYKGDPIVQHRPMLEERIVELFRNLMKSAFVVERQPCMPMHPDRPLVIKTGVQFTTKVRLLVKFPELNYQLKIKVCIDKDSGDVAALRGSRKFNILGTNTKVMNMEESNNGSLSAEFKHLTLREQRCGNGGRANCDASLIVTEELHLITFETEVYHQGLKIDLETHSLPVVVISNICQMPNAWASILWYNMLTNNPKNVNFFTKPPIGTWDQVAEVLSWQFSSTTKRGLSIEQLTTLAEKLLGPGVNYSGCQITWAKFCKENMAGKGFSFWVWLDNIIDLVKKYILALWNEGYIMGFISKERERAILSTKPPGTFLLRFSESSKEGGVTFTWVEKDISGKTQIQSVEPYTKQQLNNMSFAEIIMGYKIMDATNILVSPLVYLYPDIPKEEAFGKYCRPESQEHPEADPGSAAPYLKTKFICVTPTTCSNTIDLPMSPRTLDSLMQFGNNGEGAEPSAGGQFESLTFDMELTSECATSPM

In the case of `CC(C)(c1ccc(F)cc1)c1cccc(NC(=O)c2cc3ccc(NS(C)(=O)=O)cc3[nH]2)c1` [Example 1, N-(3-(2-(4-fluorophenyl)propan-2-yl)phenyl)-6-(methylsulfonamido)-1H-indole-2-carboxamide], the IC50 on STAT3 was found to be 0.19 µM; with LNCaP it was 2.5 µM; with MDA-MB-231, 0.23 µM.

As for `CC(C)(c1ccccc1)c1cccc(NC(=O)c2cc3ccc(NS(C)(=O)=O)cc3[nH]2)c1` [Example 2, 6-(methylsulfonamido)-N-(3-(2-phenylpropan-2-yl)phenyl)-1H-indole-2-carboxamide], the half-inhibitory concentration (IC50) on STAT3 amounted to 0.2 µM; in the experiment with LNCaP it was 5.3 µM; in the experiment with MDA-MB-231, 0.14 µM.

In the case of `COc1cc2cc(C(=O)Nc3cccc(C(C)(C)c4ccc(F)cc4)c3)[nH]c2cc1NS(C)(=O)=O` [Example 3, N-(3-(2-(4-fluorophenyl)propan-2-yl)phenyl)-5-methoxy-6-(methylsulfonamido)-1H-indole-2-carboxamide], the IC50 is 0.22 µM on STAT3, 1.1 µM with LNCaP and 0.09 µM in the experiment with MDA-MB-231.

As for `COc1cc(NC(=O)c2cc3ccc(NS(C)(=O)=O)cc3[nH]2)cc(C(C)(C)c2cccc(OC(F)(F)F)c2)c1` [Example 4, N-(3-methoxy-5-(2-(3-(trifluoromethoxy)phenyl)propan-2-yl)phenyl)-6-(methylsulfonamido)-1H-indole-2-carboxamide], the IC50 at STAT3 is 0.34 µM; in the experiment on LNCaP, 0.82 µM; in the experiment with MDA-MB-231, 0.052 µM.

As to `COc1cc(Cl)cc(Oc2cc(Cl)cc(NC(=O)c3cc4cc(NS(C)(=O)=O)c(Cl)cc4s3)c2)c1` [Example 474, 6-chloro-N-(3-chloro-5-(3-chloro-5-methoxyphenoxy)phenyl)-5-(methylsulfonamido)benzo[b]thiophene-2-carboxamide], the IC50 against STAT3 is 0.048 µM; with LNCaP, 0.059 µM; in the experiment with DU-145 it was 0.022 µM.

On to `CS(=O)(=O)Nc1cc2cc(C(=O)Nc3cc(Cl)cc(Oc4cc(O)cc(Cl)c4)c3)sc2cc1Cl` [Example 475, 6-chloro-N-(3-chloro-5-(3-chloro-5-hydroxyphenoxy)phenyl)-5-(methylsulfonamido)benzo[b]thiophene-2-carboxamide], for which the values for the IC50 against STAT3, in the experiment with LNCaP and in the experiment on DU-145 were > 10 µM, > 1.1 µM and > 1.1 µM, respectively.

With `CS(=O)(=O)Nc1cc2cc(C(=O)Nc3cc(Cl)cc(Oc4ccc(F)c(Cl)c4)c3)sc2cc1Cl` [Example 476, 6-chloro-N-(3-chloro-5-(3-chloro-4-fluorophenoxy)phenyl)-5-(methylsulfonamido)benzo[b]thiophene-2-carboxamide], the IC50 stood at 0.021 µM on STAT3, 0.022 µM in the experiment on LNCaP and 0.005 µM in the experiment with DU-145.

With `CS(=O)(=O)Nc1cc2cc(C(=O)Nc3cc(Cl)cc(Oc4ccc(Cl)c(F)c4)c3)sc2cc1Cl` [Example 477, 6-chloro-N-(3-chloro-5-(4-chloro-3-fluorophenoxy)phenyl)-5-(methylsulfonamido)benzo[b]thiophene-2-carboxamide], the IC50 on STAT3 was found to be 0.025 µM; in the experiment with LNCaP, 0.013 µM; in the experiment on DU-145 it was 0.01 µM.

In the case of `CS(=O)(=O)Nc1cc2cc(C(=O)Nc3cc(Cl)cc(Oc4ccc(F)cc4)c3)sc2cc1Cl` [Example 478, 6-chloro-N-(3-chloro-5-(4-fluorophenoxy)phenyl)-5-(methylsulfonamido)benzo[b]thiophene-2-carboxamide], the IC50 against STAT3 was 0.022 µM; in the experiment with LNCaP, 0.018 µM; in the experiment with DU-145 it was 0.012 µM.

Regarding `CS(=O)(=O)Nc1cc2cc(C(=O)Nc3cc(Cl)cc(Oc4cccc(OC(F)(F)F)c4)c3)sc2cc1Cl` [Example 479, 6-chloro-N-(3-chloro-5-(3-(trifluoromethoxy)phenoxy)phenyl)-5-(methylsulfonamido)benzo[b]thiophene-2-carboxamide], the values for the IC50 against STAT3, in the experiment with LNCaP and with DU-145 were 0.014 µM, 0.008 µM and 0.006 µM, respectively.

On to `CS(=O)(=O)Nc1cc2cc(C(=O)Nc3cc(Cl)cc(Oc4ccc(OC(F)(F)F)cc4)c3)sc2cc1Cl` [Example 480, 6-chloro-N-(3-chloro-5-(4-(trifluoromethoxy)phenoxy)phenyl)-5-(methylsulfonamido)benzo[b]thiophene-2-carboxamide], for which the values for the IC50 at STAT3, in the experiment with LNCaP and with DU-145 were 0.019 µM, 0.01 µM and 0.007 µM, respectively.

As for `CS(=O)(=O)Nc1cc2cc(C(=O)Nc3cc(Cl)cc(Oc4ccc(F)c(F)c4)c3)sc2cc1Cl` [Example 481, 6-chloro-N-(3-chloro-5-(3,4-difluorophenoxy)phenyl)-5-(methylsulfonamido)benzo[b]thiophene-2-carboxamide], the IC50 against STAT3 is 0.015 µM; with LNCaP it was 0.036 µM; in the experiment on DU-145 it was 0.008 µM.

Regarding `CS(=O)(=O)Nc1cc2cc(C(=O)Nc3cc(Cl)cc(Oc4ccc(C(F)(F)F)cc4)c3)sc2cc1Cl` [Example 482, 6-chloro-N-(3-chloro-5-(4-(trifluoromethyl)phenoxy)phenyl)-5-(methylsulfonamido)benzo[b]thiophene-2-carboxamide], the IC50 at STAT3 was determined as 0.016 µM; with LNCaP it was 0.013 µM; in the experiment with DU-145, 0.005 µM.

On to `CS(=O)(=O)Nc1cc2cc(C(=O)Nc3cc(Cl)cc(Oc4cc(F)cc(Cl)c4)c3)sc2cc1Cl` [Example 483, 6-chloro-N-(3-chloro-5-(3-chloro-5-fluorophenoxy)phenyl)-5-(methylsulfonamido)benzo[b]thiophene-2-carboxamide], for which the IC50 against STAT3 amounted to 0.014 µM; in the experiment with LNCaP it was 0.02 µM; in the experiment on DU-145, 0.01 µM.

As for `COc1cc(F)cc(Oc2cc(Cl)cc(NC(=O)c3cc4cc(NS(C)(=O)=O)c(Cl)cc4s3)c2)c1` [Example 484, 6-chloro-N-(3-chloro-5-(3-fluoro-5-methoxyphenoxy)phenyl)-5-(methylsulfonamido)benzo[b]thiophene-2-carboxamide], the IC50 against STAT3 came out at 0.021 µM; in the experiment with LNCaP, 0.037 µM; in the experiment with DU-145 it was 0.021 µM.

Regarding `CS(=O)(=O)Nc1cc2sc(C(=O)Nc3cc(Cl)cc(Oc4ccc(Cl)cc4)c3)cc2cc1Cl` [Example 485, 5-chloro-N-(3-chloro-5-(4-chlorophenoxy)phenyl)-6-(methylsulfonamido)benzo[b]thiophene-2-carboxamide], the IC50 against STAT3 is 0.129 µM; with LNCaP, > 1.1 µM; with DU-145, 0.38 µM.

For `CS(=O)(=O)Nc1cc2cc(C(=O)Nc3cc(Cl)cc(OC4CCCCC4)c3)sc2cc1Cl` [Example 486, 6-chloro-N-(3-chloro-5-(cyclohexyloxy)phenyl)-5-(methylsulfonamido)benzo[b]thiophene-2-carboxamide], the results for the IC50 on STAT3, with LNCaP and in the experiment on DU-145 were 0.11 µM, 0.083 µM and 0.048 µM, respectively.

With `Cc1ccc(Oc2cc(Cl)cc(NC(=O)c3cc4cc(NS(C)(=O)=O)c(Cl)cc4s3)c2)s1` [Example 487, 6-chloro-N-(3-chloro-5-((5-methylthiophen-2-yl)oxy)phenyl)-5-(methylsulfonamido)benzo[b]thiophene-2-carboxamide], the IC50 against STAT3 came to 0.059 µM; in the experiment on LNCaP, 0.036 µM; in the experiment with DU-145, 0.025 µM.

Turning to `Cc1cc(OC(C)C)cc(C(C)(C)c2cc(Cl)cc(NC(=O)c3cc4c(Br)c(NS(C)(=O)=O)ccc4s3)c2)c1` [Example 488, 4-bromo-N-(3-chloro-5-(2-(3-isopropoxy-5-methylphenyl)propan-2-yl)phenyl)-5-(methylsulfonamido)benzo[b]thiophene-2-carboxamide], the IC50 against STAT3 came out at 0.35 µM; in the experiment on LNCaP it was 2.5 µM; with DU-145, 1.1 µM.

On to `CS(=O)(=O)Nc1ccc2sc(C(=O)Nc3cc(Cl)nc(Oc4ccc(Cl)cc4)c3)cc2c1` [Example 489, N-(2-chloro-6-(4-chlorophenoxy)pyridin-4-yl)-5-(methylsulfonamido)benzo[b]thiophene-2-carboxamide], for which the values for the IC50 on STAT3, with LNCaP and with DU-145 were 0.11 µM, 0.11 µM and 0.031 µM, respectively.
